Blank lines part the entries; values can stand above or below the molecule they belong to.
What was measured:
frontline patients = conditions: NCT01602380; cited from earlier work
[1] = test system: ER+ breast cancer models of ESR1-wild type and ESR1-mutation-bearing disease; assay: Xenograft models / ER+ breast cancer models
[2] = Human steady-state total drug exposure versus fulvestrant; type: in vivo; conditions: GDC-9545 30 mg QD versus fulvestrant 500 mg IM monthly
ER = molecular target: T1, ER (Homo sapiens, UniProt P03372); assay: Competition with estrogens for binding to the ER
T1 sequence (P03372 1-595): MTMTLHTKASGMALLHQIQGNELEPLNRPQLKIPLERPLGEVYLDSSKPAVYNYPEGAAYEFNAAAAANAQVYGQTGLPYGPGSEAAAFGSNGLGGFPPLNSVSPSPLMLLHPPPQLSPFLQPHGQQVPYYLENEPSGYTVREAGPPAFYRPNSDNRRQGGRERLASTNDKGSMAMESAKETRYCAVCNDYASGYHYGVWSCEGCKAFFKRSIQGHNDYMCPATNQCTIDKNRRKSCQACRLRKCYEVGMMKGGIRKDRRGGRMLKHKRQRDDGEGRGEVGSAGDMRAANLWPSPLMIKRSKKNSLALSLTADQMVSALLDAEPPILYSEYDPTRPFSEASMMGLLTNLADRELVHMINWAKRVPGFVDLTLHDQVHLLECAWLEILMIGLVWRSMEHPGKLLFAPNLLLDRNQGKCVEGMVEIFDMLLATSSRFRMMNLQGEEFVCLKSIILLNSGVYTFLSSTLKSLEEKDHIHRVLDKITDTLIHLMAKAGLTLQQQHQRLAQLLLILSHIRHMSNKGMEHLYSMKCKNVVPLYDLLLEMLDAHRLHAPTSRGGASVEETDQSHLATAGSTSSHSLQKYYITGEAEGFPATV

[3] = Plasma protein binding / free concentration versus fulvestrant; type: in vitro ADME
[4] = test system: ER (wild-type and ESR1-mutant contexts); assay: In vitro cell and biochemical assays, potency versus fulvestrant
[5] = test system: CDK4/6i-resistant breast cancer cell line; conditions: Iida et al. 2020; cited from earlier work

SMILES: C[C@]12CC[C@@H]3c4ccc(O)cc4C[C@@H](CCCCCCCCC[S+]([O-])CCCC(F)(F)C(F)(F)F)[C@H]3[C@@H]1CC[C@@H]2O (stereo partly shown) [Fulvestrant, reference compound]
- clinical benefit versus anastrozole (frontline patients): benefit over anastrozole
- efficacy in xenograft models compared with GDC-9545 ([1]; fulvestrant dosed according to a clinically relevant dosing scheme): less efficacious than GDC-9545

- human steady-state total drug exposure relative to fulvestrant [2]: approximately 10 fold
- potency of competition with estrogens for binding to the ER (ER): low nanomolar potency
- free concentration compared with fulvestrant [3]: higher
- plasma protein binding compared with fulvestrant [3]: lower
SMILES: C[C@@H]1Cc2c([nH]c3ccccc23)[C@@H](c2c(F)cc(NC3CN(CCCF)C3)cc2F)N1CC(F)(F)CO [GDC-9545, 3-((1R,3R)-1-(2,6-difluoro-4-((1-(3-fluoropropyl)azetidin-3-yl)amino)phenyl)-3-methyl-1,3,4,9-tetrahydro-2H-pyrido[3,4-b]indol-2-yl)-2,2-difluoropropan-1-ol]
- nonclinical activity in ER+ breast cancer models ([1]; ESR1-wild type and ESR1-mutation-bearing disease): robust nonclinical activity
- potency relative to fulvestrant [4]: up to 10 times

SMILES: Cc1nc(NC(=O)N2CCC[C@H]2C(N)=O)sc1-c1ccnc(C(C)(C)C(F)(F)F)c1 [alpelisib]
- response of resistant cells in cell growth analysis [5]: remain responsive

SMILES: CO[C@H]1C[C@@H]2CC[C@@H](C)[C@@](O)(O2)C(=O)C(=O)N2CCCC[C@H]2C(=O)O[C@H]([C@H](C)C[C@@H]2CC[C@@H](OCCO)[C@H](OC)C2)CC(=O)[C@H](C)/C=C(\C)[C@@H](O)[C@@H](OC)C(=O)[C@H](C)C[C@H](C)/C=C/C=C/C=C/1C [everolimus]
- response of resistant cells in cell growth analysis [5]: remain responsive

— patent US20230381156A1, “TREATMENT OF BREAST CANCER USING COMBINATION THERAPIES COMPRISING GDC-9545 AND IPATASERTIB” (Genentech, Inc., priority 2021, published 2023)
